In patent US9642831B2, “Substituted chromanes and method of use” (AbbVie S.á.r.l., priority 2014, dated 2017):

Target: F508delCFTR (Homo sapiens, UniProt P13569, DEL508-508)
Assay: Cell Surface Expression-Horse Radish Peroxidase (CSE-HRP) assay
Type: cell-based
Parameters: expressed in transfected cells; host or cells: CFBE41o- human lung derived epithelial cell line, doxycycline-inducible
Conditions: CFBE4lo-F508delCFTR-HRP cells; for EC50: 18-24 hours at 33° C., 8-point curve, highest concentration 20 μM, luminescence readout; for Emax: maximum % activity at any tested concentration, normalized to on-plate positive control (3 μM Example 1)
Description: Cell Surface Expression-Horse Radish Peroxidase (CSE-HRP) Assay:
A cellular assay for measuring the F508delCFTR cell surface expression after correction with test compounds was developed in human lung derived epithelial cell line (CFBE4lo-) (Veit G et al, (2012) Mol Biol Cell. 23(21): 4188-4202). This was achieved by expressing the F508delCFTR mutation along with a horseradish peroxidase (HRP) in the fourth exofacial loop and then measuring the HRP activity using luminescence readout from these cells, CFBE4lo-F508delCFTR-HRP, that were incubated overnight with the test corrector compounds. Briefly, for this primary assay, the CFBE4lo-F508delCFTR-HRP cells were plated in 384-well plates (Greiner Bio-one; Cat 781080) at 4,000 cells/well along with 0.5 μg/mL doxycycline to induce the F508delCFTR-HRP expression and further incubated at 37° C., 5% CO2 for 72 hours. The test compounds were then added at the required concentrations and further incubated for 18-24 hours at 33° C. The highest concentration tested was 20 μM with an 8-point concentration response curve using a 3-fold dilution. Three replicate plates were run to determine one EC50. All plates contained negative controls (dimethyl sulfoxide, DMSO) and positive controls (3 μM of 3-[(2R,4R)-4-({[1-(2,2-difluoro-1,3-benzodioxol-5-yl)cyclopropyl]carbonyl}amino)-7-methoxy-3,4-dihydro-2H-chromen-2-yl]benzoic acid) as well as on-plate concentration response of the positive control. Post incubation, the plates were washed 5× times with Dulbecco's phosphate buffered saline (DPBS), followed by the addition of the HRP substrate, luminol (50 μL), and measuring the HRP activity using luminescence readout on EnVision® Multilabel Plate Reader (Perkin Elmer; product number 2104-0010). The raw counts from the experiment are analyzed using Accelrys® Assay Explorer v3.3.
Z′ greater than 0.5 was used as passing quality control criteria for the plates.
The Z′ is defined as: 1−[3*SDPositive Control+3*SDNegative Control/Absolute(MeanPositive Control−MeanNegative Control)] wherein “SD” is standard deviation.
The % activity measured at each of the 8 test concentrations of the test compound was normalized to the on-plate positive control using the following formula: % activity=[(test compound response−DMSO response)/(positive control response−DMSO response)]*100
The maximum % activity achieved for the test compound at any tested concentration is presented in Table 1 along with the EC50 calculated using the following general sigmoidal curve with variable Hill slope equation (described as Model 42 in the Accelrys® Assay Explorer v3.3 software): y=(a−d)/(1+(x/c)^b)+d
General sigmoidal curve with concentration, response, top, bottom, EC50 and Hill slope.
This model describes a sigmoidal curve with an adjustable baseline, a. The equation can be used to fit curves where response is either increasing or decreasing with respect to the independent variable, “x”.
“x” is a concentration of drug under test.
“a” is the maximum response, and “d” is the minimum response
“c” is the inflection point (EC50) for the curve. That is, “y” is halfway between the lower and upper asymptotes when x=c.
“b” is the slope-factor or Hill coefficient. The sign of b is positive when the response increases with increasing dose and is negative when the response decreases with increasing dose (inhibition).

Sequence of F508delCFTR (P13569 with tags, fused parts or gaps DEL508-508): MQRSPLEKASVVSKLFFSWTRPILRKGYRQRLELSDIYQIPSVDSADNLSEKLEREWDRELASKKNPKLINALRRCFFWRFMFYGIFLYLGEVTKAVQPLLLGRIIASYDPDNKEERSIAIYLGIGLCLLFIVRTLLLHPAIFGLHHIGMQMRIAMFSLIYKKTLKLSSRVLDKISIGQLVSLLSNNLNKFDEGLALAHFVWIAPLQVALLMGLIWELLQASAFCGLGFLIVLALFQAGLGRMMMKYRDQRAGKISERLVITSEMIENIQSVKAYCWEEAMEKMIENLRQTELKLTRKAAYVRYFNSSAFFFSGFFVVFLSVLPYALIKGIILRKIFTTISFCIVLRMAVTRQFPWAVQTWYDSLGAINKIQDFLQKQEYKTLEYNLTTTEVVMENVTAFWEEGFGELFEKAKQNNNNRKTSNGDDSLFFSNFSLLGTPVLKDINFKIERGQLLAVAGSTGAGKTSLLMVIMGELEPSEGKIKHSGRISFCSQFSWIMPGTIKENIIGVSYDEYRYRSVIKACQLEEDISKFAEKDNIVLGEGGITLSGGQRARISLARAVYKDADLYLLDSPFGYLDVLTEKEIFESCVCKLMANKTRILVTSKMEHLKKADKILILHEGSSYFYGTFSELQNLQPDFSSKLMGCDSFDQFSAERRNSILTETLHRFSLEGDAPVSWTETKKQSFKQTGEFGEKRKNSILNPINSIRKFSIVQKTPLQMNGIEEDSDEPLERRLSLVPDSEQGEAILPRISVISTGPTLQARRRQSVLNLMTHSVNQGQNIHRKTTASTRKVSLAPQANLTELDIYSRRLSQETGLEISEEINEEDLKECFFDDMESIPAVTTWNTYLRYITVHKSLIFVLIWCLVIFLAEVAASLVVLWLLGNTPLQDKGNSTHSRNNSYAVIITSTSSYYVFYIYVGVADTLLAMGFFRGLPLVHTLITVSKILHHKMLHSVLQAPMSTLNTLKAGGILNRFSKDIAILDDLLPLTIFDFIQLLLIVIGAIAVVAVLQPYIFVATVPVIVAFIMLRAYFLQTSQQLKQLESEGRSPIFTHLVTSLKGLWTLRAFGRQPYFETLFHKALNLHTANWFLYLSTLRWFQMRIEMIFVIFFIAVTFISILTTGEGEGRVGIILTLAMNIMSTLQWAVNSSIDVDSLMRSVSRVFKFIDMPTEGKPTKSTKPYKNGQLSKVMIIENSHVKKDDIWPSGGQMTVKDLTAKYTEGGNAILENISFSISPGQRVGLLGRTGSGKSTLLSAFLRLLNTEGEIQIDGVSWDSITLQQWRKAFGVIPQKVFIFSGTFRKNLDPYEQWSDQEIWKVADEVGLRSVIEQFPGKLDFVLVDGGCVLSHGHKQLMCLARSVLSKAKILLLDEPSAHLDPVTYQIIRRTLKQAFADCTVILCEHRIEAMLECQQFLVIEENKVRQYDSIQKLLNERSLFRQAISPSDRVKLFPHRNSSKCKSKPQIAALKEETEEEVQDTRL

Row | SMILES | EC50 | Emax
1 | O=C(NC1CC(c2ccccc2Cl)Oc2ccccc21)C1(c2ccc3c(c2)OC(F)(F)O3)CC1 (stereo not drawn) [Example 65, N-[2-(2-chlorophenyl)-3,4-dihydro-2H-chromen-4-yl]-1-(2,2-difluoro-1,3-benzodioxol-5-yl)cyclopropanecarboxamide] | 10100 nM | 45%
2 | O=C(NC1C[C@H](c2cccc(CO)c2)Oc2ccccc21)C1(c2ccc3c(c2)OC(F)(F)O3)CC1 (stereo partly drawn) [Example 58, 1-(2,2-difluoro-1,3-benzodioxol-5-yl)-N-{(2R)-2-[3-(hydroxymethyl)phenyl]-3,4-dihydro-2H-chromen-4-yl}cyclopropanecarboxamide] | 2540 nM | 101%
3 | COc1ccc2c(c1)OC1(CCN(C(=O)C(C)(C)CO)CC1)CC2NC(=O)C1(c2ccc3c(c2)OC(F)(F)O3)CC1 (stereo not drawn) [Example 107, 1-(2,2-difluoro-1,3-benzodioxol-5-yl)-N-[1′-(3-hydroxy-2,2-dimethylpropanoyl)-7-methoxy-3,4-dihydrospiro[chromene-2,4′-piperidin]-4-yl]cyclopropanecarboxamide] | 1130 nM | 99%
4 | COc1cccc([C@H]2C[C@@H](NC(=O)C3(c4ccc5c(c4)OC(F)(F)O5)CC3)c3ccc(O)cc3O2)c1 [Example 20, 1-(2,2-difluoro-1,3-benzodioxol-5-yl)-N-[(2R,4R)-7-hydroxy-2-(3-methoxyphenyl)-3,4-dihydro-2H-chromen-4-yl]cyclopropanecarboxamide] | 4620 nM | 30%
5 | O=C(O)c1cccc([C@H]2C[C@@H](NC(=O)C3(c4ccc5c(c4)OC(F)(F)O5)CC3)c3ccc(O)cc3O2)c1 [Example 23, 3-[(2R,4R)-4-({[1-(2,2-difluoro-1,3-benzodioxol-5-yl)cyclopropyl]carbonyl}amino)-7-hydroxy-3,4-dihydro-2H-chromen-2-yl]benzoic acid] | ≥ 20000 nM | 12%
6 | COc1ccc2c(c1)O[C@@H](C(=O)NC(C)(C)CO)C[C@H]2NC(=O)C1(c2ccc3c(c2)OC(F)(F)O3)CC1 (racemic) [Example 170, rac-(2R,4R)-4-({[1-(2,2-difluoro-1,3-benzodioxol-5-yl)cyclopropyl]carbonyl}amino)-N-(1-hydroxy-2-methylpropan-2-yl)-7-methoxy-3,4-dihydro-2H-chromene-2-carboxamide] | 1550 nM | 65%
7 | O=C(O)c1cccc([C@H]2C[C@@H](NC(=O)C3(c4ccc5c(c4)OC(F)(F)O5)CC3)c3cccnc3O2)c1 (racemic) [Example 31, rac-3-[(2R,4R)-4-({[1-(2,2-difluoro-1,3-benzodioxol-5-yl)cyclopropyl]carbonyl}amino)-3,4-dihydro-2H-pyrano[2,3-b]pyridin-2-yl]benzoic acid] | 10700 nM | 21%
8 | COc1ccc2c(c1)OC(C1CN(C(=O)OC(C)(C)C)C1)CC2NC(=O)C1(c2ccc3c(c2)OC(F)(F)O3)CC1 (mixture of isomers) [Example 115, tert-butyl 3-[4-({[1-(2,2-difluoro-1,3-benzodioxol-5-yl)cyclopropyl]carbonyl}amino)-7-methoxy-3,4-dihydro-2H-chromen-2-yl]azetidine-1-carboxylate] | 1940 nM | 77%
9 | O=C(O)c1csc([C@H]2C[C@@H](NC(=O)C3(c4ccc5c(c4)OC(F)(F)O5)CC3)c3ccccc3O2)n1 (stereo in doubt) [Example 145, rel-2-[(2R,4R)-4-({[1-(2,2-difluoro-1,3-benzodioxol-5-yl)cyclopropyl]carbonyl}amino)-3,4-dihydro-2H-chromen-2-yl]-1,3-thiazole-4-carboxylic acid] | 2450 nM | 96%
10 | O=C(O)c1cccc([C@H]2C[C@@H](NC(=O)C3(c4ccc5c(c4)OC(F)(F)O5)CC3)c3ccc(OCc4ccccc4)cc3O2)c1 [Example 98, 3-[(2R,4R)-7-(benzyloxy)-4-({[1-(2,2-difluoro-1,3-benzodioxol-5-yl)cyclopropyl]carbonyl}amino)-3,4-dihydro-2H-chromen-2-yl]benzoic acid] | 570 nM | 102%
11 | COc1ccc2c(c1)O[C@@H](C(=O)N1CCC(F)(F)CC1)C[C@H]2NC(=O)C1(c2ccc3c(c2)OC(F)(F)O3)CC1 (racemic) [Example 174, rac-1-(2,2-difluoro-1,3-benzodioxol-5-yl)-N-{(2R,4R)-2-[(4,4-difluoropiperidin-1-yl)carbonyl]-7-methoxy-3,4-dihydro-2H-chromen-4-yl}cyclopropanecarboxamide] | 1730 nM | 55%
12 | CCOC(=O)c1cnc([C@H]2C[C@@H](NC(=O)C3(c4ccc5c(c4)OC(F)(F)O5)CC3)c3ccccc3O2)s1 (stereo in doubt) [Example 135, ethyl rel-2-[(2R,4R)-4-({[1-(2,2-difluoro-1,3-benzodioxol-5-yl)cyclopropyl]carbonyl}amino)-3,4-dihydro-2H-chromen-2-yl]-1,3-thiazole-5-carboxylate] | 1510 nM | 97%
13 | CCOC(=O)C1CC(C2CC(NC(=O)C3(c4ccc5c(c4)OC(F)(F)O5)CC3)c3ccccc3O2)C1 (stereo not drawn) [Example 151, ethyl 3-[4-({[1-(2,2-difluoro-1,3-benzodioxol-5-yl)cyclopropyl]carbonyl}amino)-3,4-dihydro-2H-chromen-2-yl]cyclobutanecarboxylate] | 6120 nM | 64%
14 | CS(=O)(=O)NC(=O)c1ccc([C@H]2C[C@@H](NC(=O)C3(c4ccc5c(c4)OC(F)(F)O5)CC3)c3ccc(OC(F)F)cc3O2)cc1 [Example 203, 4-[(2R,4R)-4-({[1-(2,2-difluoro-1,3-benzodioxol-5-yl)cyclopropyl]carbonyl}amino)-7-(difluoromethoxy)-3,4-dihydro-2H-chromen-2-yl]-N-(methylsulfonyl)benzamide] | 690 nM | 157%
15 | CC1(C)C[C@@H](NC(=O)C2(c3ccc4c(c3)OC(F)(F)O4)CC2)c2ccc(Cl)cc2O1 [Example 76, N-[(4R)-7-chloro-2,2-dimethyl-3,4-dihydro-2H-chromen-4-yl]-1-(2,2-difluoro-1,3-benzodioxol-5-yl)cyclopropanecarboxamide] | 2990 nM | 105%
16 | CCOC(=O)[C@H]1C[C@@H](NC(=O)C2(c3ccc4c(c3)OC(F)(F)O4)CC2)c2ccc(OC)cc2O1 (racemic) [Example 163, ethyl rac-(2R,4R)-4-({[1-(2,2-difluoro-1,3-benzodioxol-5-yl)cyclopropyl]carbonyl}amino)-7-methoxy-3,4-dihydro-2H-chromene-2-carboxylate] | 3590 nM | 42%
17 | COC(=O)c1ccc([C@H]2C[C@@H](NC(=O)C3(c4ccc5c(c4)OC(F)(F)O5)CC3)c3ccc(OC(F)F)cc3O2)cc1 [Example 123, methyl 4-[(2R,4R)-4-({[1-(2,2-difluoro-1,3-benzodioxol-5-yl)cyclopropyl]carbonyl}amino)-7-(difluoromethoxy)-3,4-dihydro-2H-chromen-2-yl]benzoate] | 50 nM | 115%
18 | COc1ccc2c(c1)O[C@@H](C(=O)N1CCCOCC1)C[C@H]2NC(=O)C1(c2ccc3c(c2)OC(F)(F)O3)CC1 (racemic) [Example 175, rac-1-(2,2-difluoro-1,3-benzodioxol-5-yl)-N-[(2R,4R)-7-methoxy-2-(1,4-oxazepan-4-ylcarbonyl)-3,4-dihydro-2H-chromen-4-yl]cyclopropanecarboxamide] | 3200 nM | 54%
